Data: article PMC9583092 (ACS Omega, 2022)
Values joined by “and” are separate entries in the source; they are usually repeats but may differ in a detail not shown here. Equal entries are not always repeated. Where two headings read alike, the source gives them in different places. Non-standard residues stand in square brackets, D forms with d. Residues, ends and D or L forms follow the SMILES beside them. *: point of attachment. Gly(N(CH2)2(3-indolyl)) = O=C(O)CNCCc1c[nH]c2ccccc12; Gly(Nα-4-Cl-benzyl) = O=C(O)CNCc1ccc(Cl)cc1; N(4-Br-benzyl)Gly = O=C(O)CNCc1ccc(Br)cc1; N(tridecyl)Gly = CCCCCCCCCCCCCNCC(=O)O; N(4-F-Bzl)Gly = O=C(O)CNCc1ccc(F)cc1; NBzl(4-I)Gly = O=C(O)CNCc1ccc(I)cc1; Gly(N-2-aminoethyl) = NCCNCC(=O)O; NFurfurylGly = O=C(O)CNCc1ccco1; X1 = CCCCCCCCN(CCCCCCCC)CC(=O)*; Gly(N-cHex) = O=C(O)CNC1CCCCC1; X2 = CCCCCCN(CCCCCC)CC(=O)*; Nphe = O=C(O)CNCc1ccccc1; Nlys = NCCCCNCC(=O)O

Experiments:
[1] = tested on: fungi; settings: killed fungi rapidly; cited from earlier work
[2] = calculated distribution coefficient at pH 7.4; RMG8-8 parameters from previously published results; cited from earlier work
[3] = result in words; cited from earlier work
[4] = tested on: C. neoformans; settings: RMG8-8 parameters from previously published results; cited from earlier work
[5] = tested on: HepG2 hepatocellular carcinoma cells; settings: human liver cells; RMG8-8 parameters from previously published results; cited from earlier work
[6] = tested on: C. albicans; settings: cited from earlier work
[7] = tested on: C. neoformans; assay: MIC determination, broth microdilution; type: cell-based, Cryptococcus neoformans; settings: RPMI-MOPS, 72 h at 35 °C, no visual growth, twofold dilutions 200–1.56 μg/mL, biological triplicate

Row | SMILES | C. neoformans MIC [7] [µg/mL] | also measured
1 | CCCCCCCCCCCCCNCC(=O)N(CC(=O)N(CCCCN)CC(=O)N(CCN)CC(=O)N(CC(N)=O)C1CCCCC1)C1CCCCC1 [RMG8-8] (H-[N(tridecyl)Gly][Gly(N-cHex)][Nlys][Gly(N-2-aminoethyl)][Gly(N-cHex)]-NH2) |  | t1/2 of fungal killing [1]: 6.5 min; cLogD7.4 [2]: –2.38; proteolytic stability [3]: proteolytically stable; C. neoformans MIC [4]: 1.56 µg/mL; HepG2 TD50 [5]: 189 µg/mL and 189 ± 43 µg/mL; C. albicans MIC [6]: 25 µg/mL
2 | CCCCCCCCCCCCCNCC(=O)N(CCc1c[nH]c2ccccc12)CC(=O)N(CCCCN)CC(=O)N(CCN)CC(=O)N(CCc1c[nH]c2ccccc12)CC(N)=O [Compound 23] (H-[N(tridecyl)Gly][Gly(N(CH2)2(3-indolyl))][Nlys][Gly(N-2-aminoethyl)][Gly(N(CH2)2(3-indolyl))]-NH2) | 1.56 to 3.13 | 
3 | CCCCCCCCCCCCCNCC(=O)N(CC(=O)N(CCCCN)CC(=O)N(CCN)CC(=O)N(CC(N)=O)Cc1ccco1)Cc1ccco1 [Compound 24] (H-[N(tridecyl)Gly][NFurfurylGly][Nlys][Gly(N-2-aminoethyl)][NFurfurylGly]-NH2) | 3.13 to 6.25 | 
4 | CCCCCCCCCCCCCNCC(=O)N(CC(=O)N(CCCCN)CC(=O)N(CCN)CC(=O)N(CC(N)=O)Cc1ccc(I)cc1)Cc1ccc(I)cc1 [Compound 20] (H-[N(tridecyl)Gly][NBzl(4-I)Gly][Nlys][Gly(N-2-aminoethyl)][NBzl(4-I)Gly]-NH2) | 6.25 | 
5 | CCCCCCCCN(CCCCCCCC)CC(=O)N(CC(=O)N(CCCCN)CC(=O)N(CCN)CC(=O)N(CC(N)=O)C1CCCCC1)C1CCCCC1 [Compound 7] (X1-[Gly(N-cHex)][Nlys][Gly(N-2-aminoethyl)][Gly(N-cHex)]-NH2) | 6.25 | 
6 | CCCCCCCCCCCCCNCC(=O)N(CC(=O)N(CCCCN)CC(=O)N(CCN)CC(=O)N(CC(N)=O)Cc1ccc(Br)cc1)Cc1ccc(Br)cc1 [Compound 19] (H-[N(tridecyl)Gly][N(4-Br-benzyl)Gly][Nlys][Gly(N-2-aminoethyl)][N(4-Br-benzyl)Gly]-NH2) | 3.13 | 
7 | CCCCCCCCCCCCCNCC(=O)N(CC(=O)N(CCCCN)CC(=O)N(CCCCN)CC(=O)N(CC(N)=O)C1CCCCC1)C1CCCCC1 [Compound 2] (H-[N(tridecyl)Gly][Gly(N-cHex)][Nlys][Nlys][Gly(N-cHex)]-NH2) | 3.13 | 
8 | CCCCCCN(CCCCCC)CC(=O)N(CC(=O)N(CCCCN)CC(=O)N(CCN)CC(=O)N(CC(N)=O)C1CCCCC1)C1CCCCC1 [Compound 6] (X2-[Gly(N-cHex)][Nlys][Gly(N-2-aminoethyl)][Gly(N-cHex)]-NH2) | 100 | 
9 | CCCCCCCCCCCCCNCC(=O)N(CC(=O)N(CCCCN)CC(=O)N(CCN)CC(=O)N(CC(N)=O)Cc1ccc(Cl)cc1)Cc1ccc(Cl)cc1 [Compound 18] (H-[N(tridecyl)Gly][Gly(Nα-4-Cl-benzyl)][Nlys][Gly(N-2-aminoethyl)][Gly(Nα-4-Cl-benzyl)]-NH2) | 3.13 | 
10 | CCCCCCCCCCCCCNCC(=O)N(CC(=O)N(CCCCN)CC(=O)N(CCN)CC(=O)N(CC(N)=O)Cc1ccccc1)Cc1ccccc1 [Compound 15] (H-[N(tridecyl)Gly][Nphe][Nlys][Gly(N-2-aminoethyl)][Nphe]-NH2) | 1.56 to 3.13 | 
11 | CCCCCCCCCCCCCNCC(=O)N(CC(=O)N(CCCC[N+](C)(C)C)CC(=O)N(CC[N+](C)(C)C)CC(=O)N(CC(N)=O)C1CCCCC1)C1CCCCC1 [Compound 1] | 12.5 | 
12 | CCCCCCCCCCCCCNCC(=O)N(CC(=O)N(CCCCN)CC(=O)N(CCN)CC(=O)N(CC(N)=O)Cc1ccc(F)cc1)Cc1ccc(F)cc1 [Compound 17] (H-[N(tridecyl)Gly][N(4-F-Bzl)Gly][Nlys][Gly(N-2-aminoethyl)][N(4-F-Bzl)Gly]-NH2) | 1.56 to 3.13 | 
